ChEMBL document CHEMBL5034034 (J Med Chem, 2021)
The source made the active and inactive calls. The rule behind the calls is not given here.

What was measured:
[1] = molecular target: T1, Proprotein convertase subtilisin/kexin type 9 (Homo sapiens, UniProt Q8NBP7); assay: Inhibition of human PCSK9 using Alexa Fluor […] as substrate incubated for 2 hrs by FRET assay
[2] = molecular target: T1, Proprotein convertase subtilisin/kexin type 9; assay: Inhibition of human PCSK9 using Alexa Fluor […] as substrate incubated for 2 hrs by FRET plus assay
Mast cell = assay: Induction of rat mast cells degranulation activity at 100 uM incubated for 30 mins; format: functional, tissue-based
Sus scrofa [3] = species on record: Sus scrofa; assay: Stability of the compound assessed as porcine pancreatic elastase-mediated parent compound depletion by measuring parent compound remaining after 1 hr by LC-MS/MS analysis
[4] = AUC extrapolated in Wistar Han rat at 5 mg/kg, id measured upto 24 hrs by LC-MS/MS analysis; format: ADME, organism-based; settings: in vivo, other
[5] = AUC(0 to infinity) in Wistar Han rat at 5 mg/kg, id measured upto 24 hrs by LC-MS/MS analysis; format: ADME, organism-based; set-up: dose 5 mg/kg, time <=24; settings: in vivo
[6] = Metabolic stability in cynomolgus monkey whole blood assessed as half life measured upto 6 hrs by LC-MS/MS analysis; format: ADME, tissue-based, Macaca fascicularis
[7] = molecular target: T1, Proprotein convertase subtilisin/kexin type 9; assay: Inhibition of human PCSK9 using Alexa Fluor […] as substrate incubated for 2 hrs by FRET ultra assay
[8] = molecular target: T2, Solute carrier organic anion transporter family member 1B1 (Homo sapiens, UniProt Q9Y6L6); assay: Inhibition of OATP1B1 (unknown origin) expressed in HEK293 cells assessed as reduction in OATP 1B1-mediated [3H]-pitavastatin uptake preincubated for 30 mins followed by [3H]-pitavastatin addition and measured after 2 mins by liquid scintillation analysis; format: cell-based
T2 sequence (Q9Y6L6 whole entry): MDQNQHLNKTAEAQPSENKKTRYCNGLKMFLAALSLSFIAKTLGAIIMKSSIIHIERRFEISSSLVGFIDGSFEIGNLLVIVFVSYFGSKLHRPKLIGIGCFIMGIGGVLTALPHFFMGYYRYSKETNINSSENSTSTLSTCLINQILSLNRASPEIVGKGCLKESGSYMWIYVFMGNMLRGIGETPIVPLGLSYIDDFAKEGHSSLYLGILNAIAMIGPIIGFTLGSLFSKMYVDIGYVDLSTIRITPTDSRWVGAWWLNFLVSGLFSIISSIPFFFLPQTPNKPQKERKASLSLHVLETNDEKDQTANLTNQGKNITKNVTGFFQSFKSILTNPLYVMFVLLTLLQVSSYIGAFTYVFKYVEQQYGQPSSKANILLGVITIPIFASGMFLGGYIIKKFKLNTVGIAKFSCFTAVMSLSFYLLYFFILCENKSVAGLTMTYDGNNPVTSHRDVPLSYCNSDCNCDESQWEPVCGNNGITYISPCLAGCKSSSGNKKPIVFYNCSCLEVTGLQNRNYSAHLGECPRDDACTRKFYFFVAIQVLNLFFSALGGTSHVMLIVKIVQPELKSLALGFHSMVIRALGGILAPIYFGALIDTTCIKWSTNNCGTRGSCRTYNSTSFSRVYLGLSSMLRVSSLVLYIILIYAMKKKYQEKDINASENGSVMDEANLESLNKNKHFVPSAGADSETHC

Bos taurus = species on record: Bos taurus; assay: Stability of the compound assessed as bovine pancreas alpha chymotrypsin-mediated parent compound depletion by measuring parent compound remaining after 1 hr by LC-MS/MS analysis
Sus scrofa [9] = species on record: Sus scrofa; assay: Stability of the compound assessed as porcine pepsin-mediated parent compound depletion by measuring parent compound remaining after 1 hr by LC-MS/MS analysis
[10] = Stability of the compound assessed as bovine pancreatic trypsin-mediated parent compound depletion by measuring parent compound remaining after 1 hr by LC-MS/MS analysis; format: ADME, Bos taurus; settings: cattle, read-out: Stability
[11] = Cmax in Wistar Han rat at 5 mg/kg, id measured upto 24 hrs by LC-MS/MS analysis; format: ADME, organism-based; set-up: dose 5 mg/kg, time <=24; settings: in vivo
[12] = Tmax in Wistar Han rat at 5 mg/kg, id measured upto 24 hrs by LC-MS/MS analysis; format: ADME, organism-based; settings: in vivo
[13] = Bioavailability in Wistar Han rat at 5 mg/kg, id measured upto 24 hrs by LC-MS/MS analysis; format: ADME, organism-based; settings: in vivo
[14] = AUC(0 to infinity) in cynomolgus monkey at 0.2 mg/kg, iv measured upto 72 hrs by LC-MS/MS analysis; format: ADME, organism-based, Macaca fascicularis; set-up: route intravenous, dose 0.2 mg/kg, time <=72; settings: in vivo
[15] = Clearance in cynomolgus monkey at 0.2 mg/kg, iv measured upto 72 hrs by LC-MS/MS analysis; format: ADME, organism-based, Macaca fascicularis; settings: in vivo
[16] = Volume of distribution at steady state in cynomolgus monkey at 0.2 mg/kg, iv measured upto 72 hrs by LC-MS/MS analysis; format: ADME, organism-based, Macaca fascicularis; settings: in vivo, read-out: Vdss
[17] = Half life in cynomolgus monkey at 0.2 mg/kg, iv measured upto 72 hrs by LC-MS/MS analysis; format: ADME, organism-based, Macaca fascicularis; settings: in vivo
[18] = Protein binding in cynomolgus monkey at 0.2 mg/kg, iv measured upto 72 hrs by LC-MS/MS analysis; format: ADME, organism-based, Macaca fascicularis; settings: in vivo, read-out: PB (converted)
[19] = Unbound clearance in cynomolgus monkey at 0.2 mg/kg, iv measured upto 72 hrs by LC-MS/MS analysis; format: ADME, organism-based, Macaca fascicularis; settings: in vivo
[20] = Reduction in LDL-cholesterol levels in cynomolgus monkey at 0.2 mg/kg, iv after 48 hrs; format: functional, Macaca fascicularis; set-up: scale not given: the % may be the effect or the level left
Macaca fascicularis = assay: Reduction in LDL-cholesterol levels in cynomolgus monkey at 0.2 mg/kg, iv after 4 weeks; format: functional, organism-based
[21] = Reduction in unbound PCSK9 levels in cynomolgus monkey at 0.2 mg/kg, iv after 24 to 48 hrs; format: functional, Macaca fascicularis; set-up: scale not given: the % may be the effect or the level left; settings: time 24-48 hrs
[22] = AUC(0 to infinity) in Wistar Han rat at 1 mg/kg, iv measured upto 24 hrs by LC-MS/MS analysis; format: ADME, organism-based; set-up: route intravenous, dose 1 mg/kg, time <=24; settings: in vivo
[23] = Clearance in Wistar Han rat at 1 mg/kg, iv measured upto 24 hrs by LC-MS/MS analysis; format: ADME, organism-based; settings: in vivo
[24] = Volume of distribution at steady state in Wistar Han rat at 1 mg/kg, iv measured upto 24 hrs by LC-MS/MS analysis; format: ADME, organism-based; settings: in vivo, read-out: Vdss
[25] = Half life in Wistar Han rat at 1 mg/kg, iv measured upto 24 hrs by LC-MS/MS analysis; format: ADME, organism-based; settings: in vivo
[26] = Protein binding in Wistar Han rat at 1 mg/kg, iv measured upto 24 hrs by LC-MS/MS analysis; format: ADME, organism-based; settings: in vivo, read-out: PB (converted)
[27] = Unbound clearance in Wistar Han rat at 1 mg/kg, iv measured upto 24 hrs by LC-MS/MS analysis; format: ADME, organism-based; settings: in vivo

T1 sequence (Q8NBP7 31-152 limits assumed): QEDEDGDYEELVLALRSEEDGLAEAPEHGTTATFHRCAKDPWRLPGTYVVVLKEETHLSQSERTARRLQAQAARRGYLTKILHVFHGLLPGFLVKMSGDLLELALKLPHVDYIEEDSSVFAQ
T1 sequence (Q8NBP7 153-692 limits assumed): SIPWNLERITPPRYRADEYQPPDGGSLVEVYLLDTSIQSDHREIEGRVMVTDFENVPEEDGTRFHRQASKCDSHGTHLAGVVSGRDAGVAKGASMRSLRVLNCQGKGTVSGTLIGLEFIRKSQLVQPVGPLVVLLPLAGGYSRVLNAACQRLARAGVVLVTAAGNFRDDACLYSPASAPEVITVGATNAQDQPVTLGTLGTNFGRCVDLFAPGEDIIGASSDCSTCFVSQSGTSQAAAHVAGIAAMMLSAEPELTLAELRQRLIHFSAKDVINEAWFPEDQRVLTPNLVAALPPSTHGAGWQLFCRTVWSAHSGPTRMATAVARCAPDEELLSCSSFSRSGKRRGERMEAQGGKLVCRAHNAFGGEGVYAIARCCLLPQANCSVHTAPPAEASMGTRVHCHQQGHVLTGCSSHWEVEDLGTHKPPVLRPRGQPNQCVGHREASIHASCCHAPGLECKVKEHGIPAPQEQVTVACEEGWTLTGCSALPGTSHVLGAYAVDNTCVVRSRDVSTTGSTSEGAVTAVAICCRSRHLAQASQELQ

For `COc1ccc(C[C@@H]2NC(=O)[C@H]([C@@H](C)OC)NC(=O)[C@@H]3[C@@H]4CCN3C(=O)[C@H](Cc3c[nH]c5ccc(F)cc35)NC(=O)[C@H](Cc3cccc(c3)C/C=C\CO4)NC(=O)[C@@H](C)NC(=O)[C@H](C)NC(=O)CCSCc3cccc(c3)CSCCNC(=O)[C@]3(C)CCCN3C2=O)cc1`, which Ki [1] is on record?
The Ki was 4.83 nM.

For `COc1ccc(C[C@@H]2NC(=O)[C@H]([C@H](C)OC)NC(=O)[C@@H]3[C@@H]4CCN3C(=O)[C@H](Cc3c[nH]c5ccc(F)cc35)NC(=O)[C@H](Cc3cccc(c3)C/C=C/CO4)NC(=O)[C@H](C)NC(=O)[C@H](CN)NC(=O)CCSCc3cccc(c3)CSCCNC(=O)[C@]3(C)CCCN3C2=O)cc1`, which Ki [1] is on record?
Its Ki is 0.45 nM.

And the Ki [2]?
Its Ki is 0.23 nM.

And the Activity (Mast cell)?
The Activity was “inactive”.

With `COc1ccc(C[C@@H]2NC(=O)[C@H]([C@@H](C)OC)NC(=O)[C@@H]3[C@@H]4CCN3C(=O)[C@H](Cc3c[nH]c5ccc(F)cc35)NC(=O)[C@H](Cc3cccc(c3)C/C=C/CO4)NC(=O)[C@@H](CN)NC(=O)[C@H](C)NC(=O)CCSCc3cccc(c3)CSCCNC(=O)[C@]3(C)CCCN3C2=O)cc1` as the molecule, how does the Ki [1] read?
The Ki was 0.2 nM.

And the Ki [2]?
The Ki was 0.16 nM.

For `COc1ccc(C[C@@H]2NC(=O)[C@H]([C@@H](C)OC)NC(=O)[C@@H]3[C@@H]4CCN3C(=O)[C@H](Cc3c[nH]c5ccc(F)cc35)NC(=O)[C@H](Cc3cccc(c3)CCCCO4)NC(=O)[C@@H](C)NC(=O)[C@H](C)NC(=O)CCSCc3cccc(c3)CSCCNC(=O)[C@]3(C)CCCN3C2=O)cc1`, which Ki [1] is on record?
Its Ki is 2.17 nM.

Which Stability (Sus scrofa [3]) does the source give for `COc1ccc(C[C@@H]2NC(=O)[C@H]([C@@H](C)O)NC(=O)[C@@H]3[C@@H]4CCN3C(=O)[C@@H]3Cc5cn(c6ccc(F)cc56)Cc5cn(nn5)-c5cc(cc(c5)CSCCC(=O)N[C@@H](C)C(=O)N[C@H](CNC(=O)CCOCCOCC[N+](C)(C)C)C(=O)N[C@@H](Cc5cccc(c5)C/C=C/CO4)C(=O)N3)CSCCNC(=O)[C@]3(C)CCCN3C2=O)cc1` here?
The Stability was 92.6%.

And the “%AUCextra” value [4]?
Its value is 3%.

And the AUC(0-inf) [5]?
Its AUC(0-inf) is 0.497 µM·h.

What about the half-life [6] of the same molecule?
Its half-life is over 6 h.

What about the Ki [1] of the same molecule?
The Ki was under 0.129 nM.

What about the Ki [2] of the same molecule?
Its Ki is 0.00736 nM.

What about the Ki [7] of the same molecule?
Its Ki is 0.00093 nM.

What about the EC50 [8] of the same molecule?
The EC50 was 2500 nM.

And the Stability (Bos taurus)?
Its Stability is 95.3%.

What about the Stability (Sus scrofa [9]) of the same molecule?
Its Stability is 99%.

What about the remaining at 1 h [10] of the same molecule?
The remaining at 1 h was 100%.

What about the Cmax [11] of the same molecule?
Its Cmax is 178 nM.

What about the Tmax [12] of the same molecule?
The Tmax was 0.3 h.

What about the bioavailability [13] of the same molecule?
The bioavailability was 1.4%.

And the AUC(0-inf) [14]?
Its AUC(0-inf) is 0.762 µM·h.

What about the clearance [15] of the same molecule?
The clearance was 2.7 mL/min/kg.

What about the Vd [16] of the same molecule?
The Vd was 1.2 L/kg.

And the half-life [17]?
The half-life was 10.1 h.

And the fraction unbound at 72 h [18]?
Its fraction unbound at 72 h is 0.256.

And the CL free [19]?
The CL free was 10.6 mL/min/kg.

What about the Activity (Mast cell) of the same molecule?
Its Activity is “inactive”.

What about the Activity [20] of the same molecule?
Its Activity is over 50%.

What about the Activity (Macaca fascicularis) of the same molecule?
The Activity was “inactive”.

What about the Activity [21] of the same molecule?
The Activity was over 80%.

Which results are given for `COc1ccc(C[C@@H]2NC(=O)[C@H]([C@@H](C)O)NC(=O)[C@@H]3[C@@H]4CCN3C(=O)[C@@H]3Cc5cn(c6ccc(F)cc56)Cc5cn(nn5)-c5cc(cc(c5)CSCCC(=O)N[C@@H](CN)C(=O)N[C@H](C)C(=O)N[C@@H](Cc5cccc(c5)C/C=C/CO4)C(=O)N3)CSCCNC(=O)[C@]3(C)CCCN3C2=O)cc1`?
Stability (Sus scrofa [3]): 96.5%; %AUCextra [4]: 23.6%; AUC(0-inf) [5]: 0.0215 µM·h; Ki [1]: < 0.129 nM; Ki [2]: 0.00826 nM; Ki [7]: 0.0094 nM; AUC(0-inf) [22]: 0.964 µM·h; clearance [23]: 12.3 mL/min/kg; Vd [24]: 3 L/kg; half-life [25]: 5.9 h; fraction unbound at 24 h [26]: 0.144; CL free [27]: 85 mL/min/kg; EC50 [8]: 600 nM; Stability (Bos taurus): 90%; Stability (Sus scrofa [9]): 100%; remaining at 1 h [10]: 100%; Cmax [11]: 12.4 nM; Tmax [12]: 0.25 h; bioavailability [13]: 0.45%; Activity (Mast cell): inactive

With `COc1ccc(C[C@@H]2NC(=O)[C@H]([C@@H](C)O)NC(=O)[C@@H]3[C@@H]4CCN3C(=O)[C@H](Cc3c[nH]c5ccc(F)cc35)NC(=O)[C@H](Cc3cccc(c3)C/C=C\CO4)NC(=O)[C@@H](C)NC(=O)[C@H](C)NC(=O)CCSCc3cccc(c3)CSCCNC(=O)[C@]3(C)CCCN3C2=O)cc1` as the molecule, how does the Ki [1] read?
Its Ki is 4.66 nM.
